≈ marks a conversion by molar mass, not a printed value.
Legend:
[1] = test system: Staphylococcus aureus S13E; format: cell-based
Description: (§1) The MIC's were determined using a standard broth micro-dilution assay.

[2] = test system: Staphylococcus aureus SA1199B; format: cell-based
Description: as §1

[3] = test system: Entercoccus faecium 180-1; assay: broth micro-dilution MIC; format: cell-based
Description: as §1

Entercoccus faecium 276 = assay: broth micro-dilution MIC; format: cell-based
Description: as §1

[4] = test system: Staphylococcus aureus 446; assay: broth micro-dilution MIC; format: cell-based
Description: as §1

[5] = test system: Staphylococcus aureus 489; assay: broth micro-dilution MIC; format: cell-based
Description: as §1

[6] = test system: Staphylococcus aureus 491; assay: broth micro-dilution MIC; format: cell-based
Description: as §1

[7] = test system: Staphylococcus aureus SA1199A; assay: broth micro-dilution MIC; format: cell-based
Description: as §1

[8] = test system: Staphylococcus aureus SA1199; assay: broth micro-dilution MIC; format: cell-based
Description: as §1

[9] = test system: Staphylococcus aureus X400; assay: broth micro-dilution MIC; format: cell-based
Description: as §1

[10] = test system: Staphylococcus aureus X778; assay: broth micro-dilution MIC; format: cell-based
Description: as §1

Entercoccus faecium 180 = assay: broth micro-dilution MIC; format: cell-based; details: Entercoccus faecium 180
Description: (§2) The formula I compounds have in vitro and in vivo activity against Gram-positive pathogenic bacteria. The MIC's were determined using a standard broth micro-dilution assay.

Entercoccus faecium 2041 = assay: broth micro-dilution MIC; format: cell-based; details: Entercoccus faecium 2041
Description: as §2

[11] = test system: Enterococcus gallinarum 245; assay: broth micro-dilution MIC; format: cell-based; details: Enterococcus gallinarum 245
Description: as §2

[12] = test system: Staphylococcus epidermidis 270; assay: broth micro-dilution MIC; format: cell-based
Description: as §2

[13] = test system: Staphylococcus haemolyticus 105; assay: broth micro-dilution MIC; format: cell-based
Description: as §2

[14] = test system: Staphylococcus haemolyticus 415; assay: broth micro-dilution MIC; format: cell-based
Description: as §2

[15] = test system: Streptococcus pneumoniae P1; assay: broth micro-dilution MIC; format: cell-based
Description: as §2

[16] = test system: vancomycin-resistant enterococci; assay: broth micro-dilution, mean geometric MIC; format: cell-based, Enterococcus faecium and Enterococcus faecalis; details: enterococci, 24-hour incubation
[17] = test system: vancomycin-susceptible enterococci; assay: broth micro-dilution, mean geometric MIC; format: cell-based, Enterococcus faecium and Enterococcus faecalis; details: enterococci, 24-hour incubation
[18] = test system: Staphylococcus aureus 447; assay: broth micro-dilution MIC; format: cell-based
Description: as §1

[19] = test system: Streptococcus pyogenes C203; assay: broth micro-dilution MIC; format: cell-based
Description: as §1

SMILES | MIC [1] | MIC [2] | MIC [3] | MIC (Entercoccus faecium 276) | MIC [4] | MIC [5] | MIC [6] | MIC [7] | MIC [8] | MIC [9] | MIC (Entercoccus faecium 180) | MIC (Entercoccus faecium 2041) | MIC [11] | MIC [12] | MIC [13] | MIC [14] | MIC [15] | mean geometric MIC, Vancomycin Resistant Strains [16] | mean geometric MIC, Vancomycin Sensitive Strains [17] | MIC [18] | other results
CNC(CC(C)C)C(=O)NC1C(=O)NC(CC(N)=O)C(=O)NC2C(=O)NC3C(=O)NC(C(=O)NC(C(=O)O)c4cc(O)cc(O)c4-c4cc3ccc4O)C(OC3CC(C)(N)C(O)C(C)O3)c3ccc(c(Cl)c3)Oc3cc2cc(c3OC2OC(CO)C(O)C(O)C2OC2CC(C)(NCc3ccc(-c4ccc([N+](=O)[O-])cc4)c([N+](=O)[O-])c3)C(O)C(C)O2)Oc2ccc(cc2Cl)C1O (stereo not shown) [Compound 212] | ≤ 0.06 µg/mL | ≤ 0.06 µg/mL | ≤ 0.06 µg/mL | ≤ 0.06 µg/mL | ≤ 0.06 µg/mL | ≤ 0.06 µg/mL | ≤ 0.06 µg/mL | ≤ 0.06 µg/mL | ≤ 0.06 µg/mL | ≤ 0.06 µg/mL | ≤ 0.06 µg/mL | ≤ 0.06 µg/mL | 1 µg/mL (≈ 0.541 µM) | ≤ 0.06 µg/mL | 1 µg/mL (≈ 0.541 µM) | 1 µg/mL (≈ 0.541 µM) | ≤ 0.06 µg/mL | 0.50 µg/mL | 0.036 µg/mL |  | MIC [10]: ≤ 0.06 µg/mL
CNC(CC(C)C)C(=O)NC1C(=O)NC(CC(N)=O)C(=O)NC2C(=O)NC3C(=O)NC(C(=O)NC(C(=O)O)c4cc(O)cc(O)c4-c4cc3ccc4O)C(OC3CC(C)(N)C(O)C(C)O3)c3ccc(c(Cl)c3)Oc3cc2cc(c3OC2OC(CO)C(O)C(O)C2OC2CC(C)(NCc3ccc4ccc5cccc6ccc3c4c56)C(O)C(C)O2)Oc2ccc(cc2Cl)C1O (stereo not shown) [Compound 16] | 1 µg/mL (≈ 0.553 µM) | 1 µg/mL (≈ 0.553 µM) | 0.125 µg/mL (≈ 0.0692 µM) | 2 µg/mL (≈ 1.11 µM) | 4 µg/mL (≈ 2.21 µM) | 0.5 µg/mL (≈ 0.277 µM) | 1 µg/mL (≈ 0.553 µM) | ≤ 0.06 µg/mL | 2 µg/mL (≈ 1.11 µM) | 0.5 µg/mL (≈ 0.277 µM) | 1 µg/mL (≈ 0.553 µM) | 0.5 µg/mL (≈ 0.277 µM) | 1 µg/mL (≈ 0.553 µM) | 2 µg/mL (≈ 1.11 µM) | 8 µg/mL (≈ 4.43 µM) | 4 µg/mL (≈ 2.21 µM) | ≤ 0.06 µg/mL |  | 0.67 µg/mL | 4 µg/mL (≈ 2.21 µM) | MIC [19]: ≤ 0.06 µg/mL
CNC(CC(C)C)C(=O)NC1C(=O)NC(CC(N)=O)C(=O)NC2C(=O)NC3C(=O)NC(C(=O)NC(C(=O)O)c4cc(O)cc(O)c4-c4cc3ccc4O)C(OC3CC(C)(N)C(O)C(C)O3)c3ccc(c(Cl)c3)Oc3cc2cc(c3OC2OC(CO)C(O)C(O)C2OC2CC(C)(NCc3ccc(-c4ccccc4)cc3F)C(O)C(C)O2)Oc2ccc(cc2Cl)C1O (stereo not shown) [Compound 206] | 1 µg/mL (≈ 0.563 µM) | 1 µg/mL (≈ 0.563 µM) | ≤ 0.06 µg/mL | ≤ 0.06 µg/mL | 0.5 µg/mL (≈ 0.281 µM) | 1 µg/mL (≈ 0.563 µM) | ≤ 0.06 µg/mL | ≤ 0.06 µg/mL | 0.5 µg/mL (≈ 0.281 µM) | 0.5 µg/mL (≈ 0.281 µM) | ≤ 0.06 µg/mL | 0.25 µg/mL (≈ 0.141 µM) | 1 µg/mL (≈ 0.563 µM) | 0.25 µg/mL (≈ 0.141 µM) | 0.5 µg/mL (≈ 0.281 µM) | 1 µg/mL (≈ 0.563 µM) | ≤ 0.06 µg/mL | 1.7 µg/mL | 0.095 µg/mL | 0.5 µg/mL (≈ 0.281 µM) | MIC [10]: 0.5 µg/mL (≈ 0.281 µM)
CNC(CC(C)C)C(=O)NC1C(=O)NC(CC(N)=O)C(=O)NC2C(=O)NC3C(=O)NC(C(=O)NC(C(=O)O)c4cc(O)cc(O)c4-c4cc3ccc4O)C(OC3CC(C)(N)C(O)C(C)O3)c3ccc(c(Cl)c3)Oc3cc2cc(c3OC2OC(CO)C(O)C(O)C2OC2CC(C)(NCc3ccc(Oc4ccccc4Cl)c([N+](=O)[O-])c3)C(O)C(C)O2)Oc2ccc(cc2Cl)C1O (stereo not shown) [Compound 88] | 1 µg/mL (≈ 0.539 µM) | 1 µg/mL (≈ 0.539 µM) | ≤ 0.06 µg/mL | ≤ 0.06 µg/mL |  | 0.5 µg/mL (≈ 0.27 µM) | 0.5 µg/mL (≈ 0.27 µM) | ≤ 0.06 µg/mL | 1 µg/mL (≈ 0.539 µM) | ≤ 0.06 µg/mL | 0.125 µg/mL (≈ 0.0674 µM) | ≤ 0.06 µg/mL | ≤ 0.06 µg/mL | 1 µg/mL (≈ 0.539 µM) | 1 µg/mL (≈ 0.539 µM) | 2 µg/mL (≈ 1.08 µM) | ≤ 0.06 µg/mL | 1.7 µg/mL | 0.055 µg/mL |  | MIC [10]: 0.5 µg/mL (≈ 0.27 µM); MIC [19]: ≤ 0.06 µg/mL
CNC(CC(C)C)C(=O)NC1C(=O)NC(CC(N)=O)C(=O)NC2C(=O)NC3C(=O)NC(C(=O)NC(C(=O)O)c4cc(O)cc(O)c4-c4cc3ccc4O)C(OC3CC(C)(N)C(O)C(C)O3)c3ccc(c(Cl)c3)Oc3cc2cc(c3OC2OC(CO)C(O)C(O)C2OC2CC(C)(NCCCCCCCCCCCCc3ccccc3)C(O)C(C)O2)Oc2ccc(cc2Cl)C1O (stereo not shown) [Compound 234] | 8 µg/mL (≈ 4.36 µM) | 8 µg/mL (≈ 4.36 µM) | 1 µg/mL (≈ 0.544 µM) | 4 µg/mL (≈ 2.18 µM) | 4 µg/mL (≈ 2.18 µM) | 4 µg/mL (≈ 2.18 µM) | 8 µg/mL (≈ 4.36 µM) | 2 µg/mL (≈ 1.09 µM) | 8 µg/mL (≈ 4.36 µM) | 8 µg/mL (≈ 4.36 µM) | 1 µg/mL (≈ 0.544 µM) | 0.5 µg/mL (≈ 0.272 µM) | 16 µg/mL (≈ 8.71 µM) | 4 µg/mL (≈ 2.18 µM) | 8 µg/mL (≈ 4.36 µM) | 16 µg/mL (≈ 8.71 µM) |  | 2 µg/mL | 2 µg/mL | 8 µg/mL (≈ 4.36 µM) | MIC [10]: 4 µg/mL (≈ 2.18 µM)
CNC(CC(C)C)C(=O)NC1C(=O)NC(CC(N)=O)C(=O)NC2C(=O)NC3C(=O)NC(C(=O)NC(C(=O)O)c4cc(O)cc(O)c4-c4cc3ccc4O)C(OC3CC(C)(N)C(O)C(C)O3)c3ccc(c(Cl)c3)Oc3cc2cc(c3OC2OC(CO)C(O)C(O)C2OC2CC(C)(NCc3ccc(-c4ccccc4)s3)C(O)C(C)O2)Oc2ccc(cc2Cl)C1O (stereo not shown) [Compound 67] |  | 1 µg/mL (≈ 0.567 µM) | ≤ 0.06 µg/mL | ≤ 0.06 µg/mL |  | ≤ 0.06 µg/mL | 1 µg/mL (≈ 0.567 µM) | ≤ 0.06 µg/mL | 1 µg/mL (≈ 0.567 µM) | 1 µg/mL (≈ 0.567 µM) |  | ≤ 0.06 µg/mL | 2 µg/mL (≈ 1.13 µM) | 0.5 µg/mL (≈ 0.283 µM) |  | 2 µg/mL (≈ 1.13 µM) | ≤ 0.06 µg/mL | 1.7 µg/mL | 0.16 µg/mL | 1 µg/mL (≈ 0.567 µM) | 
C=CCOc1ccc(CNC2(C)CC(OC3C(Oc4c5cc6cc4Oc4ccc(cc4Cl)C(OC4CC(C)(N)C(O)C(C)O4)C4NC(=O)C(NC(=O)C6NC(=O)C(CC(N)=O)NC(=O)C(NC(=O)C(CC(C)C)NC)C(O)c6ccc(c(Cl)c6)O5)c5ccc(O)c(c5)-c5c(O)cc(O)cc5C(C(=O)O)NC4=O)OC(CO)C(O)C3O)OC(C)C2O)cc1 (stereo not shown) [Compound 7] | 2 µg/mL (≈ 1.15 µM) | 1 µg/mL (≈ 0.575 µM) | ≤ 0.06 µg/mL | 1 µg/mL (≈ 0.575 µM) | 8 µg/mL (≈ 4.6 µM) | 2 µg/mL (≈ 1.15 µM) | 2 µg/mL (≈ 1.15 µM) | ≤ 0.06 µg/mL | 4 µg/mL (≈ 2.3 µM) | 1 µg/mL (≈ 0.575 µM) | 2 µg/mL (≈ 1.15 µM) |  | 0.5 µg/mL (≈ 0.288 µM) | 4 µg/mL (≈ 2.3 µM) | 8 µg/mL (≈ 4.6 µM) |  | ≤ 0.06 µg/mL | 2.8 µg/mL | 0.43 µg/mL | 4 µg/mL (≈ 2.3 µM) | MIC [19]: ≤ 0.06 µg/mL
CN[C@H](CC(C)C)C(=O)N[C@H]1C(=O)N[C@@H](CC(N)=O)C(=O)N[C@H]2C(=O)N[C@H]3C(=O)N[C@H](C(=O)N[C@H](C(=O)O)c4cc(O)cc(O)c4-c4cc3ccc4O)[C@H](O[C@H]3C[C@](C)(N)[C@@H](O)[C@H](C)O3)c3ccc(c(Cl)c3)Oc3cc2cc(c3O[C@@H]2O[C@H](CO)[C@@H](O)[C@H](O)[C@H]2O[C@H]2C[C@](C)(NCc3ccc(-c4cccc(F)c4)cc3)[C@@H](O)[C@H](C)O2)Oc2ccc(cc2Cl)[C@H]1O [Compound 92] | 0.125 µg/mL (≈ 0.0704 µM) | 0.5 µg/mL (≈ 0.281 µM) | ≤ 0.06 µg/mL | 0.125 µg/mL (≈ 0.0704 µM) | 2 µg/mL (≈ 1.13 µM) | ≤ 0.06 µg/mL | 1 µg/mL (≈ 0.563 µM) | ≤ 0.06 µg/mL | 1 µg/mL (≈ 0.563 µM) | 0.5 µg/mL (≈ 0.281 µM) | 0.125 µg/mL (≈ 0.0704 µM) | 0.125 µg/mL (≈ 0.0704 µM) | 2 µg/mL (≈ 1.13 µM) | 1 µg/mL (≈ 0.563 µM) | 2 µg/mL (≈ 1.13 µM) | 2 µg/mL (≈ 1.13 µM) | ≤ 0.06 µg/mL | 1.7 µg/mL | 0.082 µg/mL | 0.5 µg/mL (≈ 0.281 µM) | MIC [19]: ≤ 0.06 µg/mL

— patent US5840684A, “Glycopeptide antibiotic derivatives” (Eli Lilly and Company, priority 1995, dated 1998)
